Experimental data reported in patent publication US20030199671A1, “Binding molecules for Fc-region polypeptides” (priority 2001, published 2003).
Positions of bridges follow the written chain, without caps; N, C: chain ends. Residues, ends and D or L forms follow the SMILES beside them.

Experiments:
[1] = target: Fc (mixture of human plasma IgG isoforms); experiment: Fluorescence anisotropy binding, fluorescein-labeled peptide; conditions: pH 8.0, 0.05 M Tris-HCl, 0.2 M NaCl
In short: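 Fluorescence anisotropy with fluorescein-labeled peptide (20 nM or 2 nM) titrated with human plasma IgG isoform or mixed-IgG Fc target. Fc buffer 50 mM Tris-HCl, 200 mM NaCl, pH 8.0, 0.01% Tween 20; IgG buffer PBS, 0.01% Tween 20. Equilibrated 10 minutes at 30° C before polarization read.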

[2] = target: T1, human plasma IgG3 (Homo sapiens, UniProt P01860); experiment: as above
T1 construct: the individual human plasma IgG isoforms: IgG1, IgG2, IgG3, or IgG4; purchased Calbiochem; host or cells: human plasma
T1 sequence (P01860 1-377 isoform P01860-1): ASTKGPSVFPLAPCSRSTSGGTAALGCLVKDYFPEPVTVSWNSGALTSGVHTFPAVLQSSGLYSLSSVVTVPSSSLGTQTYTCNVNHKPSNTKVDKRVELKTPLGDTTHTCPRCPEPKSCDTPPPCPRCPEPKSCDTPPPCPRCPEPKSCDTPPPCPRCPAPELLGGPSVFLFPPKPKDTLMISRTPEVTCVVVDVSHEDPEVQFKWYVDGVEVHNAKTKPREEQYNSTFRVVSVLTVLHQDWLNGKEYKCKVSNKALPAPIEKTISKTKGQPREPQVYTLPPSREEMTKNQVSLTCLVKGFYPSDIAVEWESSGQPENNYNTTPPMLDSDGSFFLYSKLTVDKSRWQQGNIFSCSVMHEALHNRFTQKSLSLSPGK

[3] = target: T2, human plasma IgG4 (Homo sapiens, UniProt P01861); experiment: as above
T2 construct: the individual human plasma IgG isoforms: IgG1, IgG2, IgG3, or IgG4; purchased Calbiochem; host or cells: human plasma
T2 sequence (P01861 1-327 isoform P01861-1): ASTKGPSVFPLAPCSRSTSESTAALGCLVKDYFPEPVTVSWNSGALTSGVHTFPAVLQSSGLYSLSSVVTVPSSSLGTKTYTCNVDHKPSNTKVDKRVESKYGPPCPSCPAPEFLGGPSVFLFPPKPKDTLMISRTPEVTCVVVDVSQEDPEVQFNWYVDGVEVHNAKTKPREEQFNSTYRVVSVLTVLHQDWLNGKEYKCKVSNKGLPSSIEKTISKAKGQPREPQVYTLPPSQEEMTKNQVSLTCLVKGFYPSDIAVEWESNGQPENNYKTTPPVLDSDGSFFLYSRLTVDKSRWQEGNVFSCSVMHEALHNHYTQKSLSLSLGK

[4] = tested on: human IgG; experiment: Dynamic (mini-column) binding capacity
Protocol: These media were used to determine the effect of ligand density on human IgG binding capacity in both static (filterplate) and dynamic (mini-column) modes with commercial immobilized recombinant Protein A (Repligen, IPA400) at a single density as control.
The IgG solution was loaded onto the column at a flow rate of 0.2 ml/minute (170 cm/hr). […] At the end of the loading period, the column was washed with PBS until the absorbance at 280 nm of the column eluant returned to baseline. […] Neutralizing the pH of the eluted fractions was unnecessary since the total IgG eluted was determined by total protein absorbance at 280 nm.
To establish total media capacities, IgG was loaded onto the columns until the absorbances of the column load and flow through streams were identical (loading to full capacity). After washing the column to baseline, bound IgG was eluted and the total amount captured from this elution fraction determined. The total capacity of the media (mg IgG/ml media) as total IgG captured divided by the column bed volume was calculated.
Additionally, column capacities at 10% breakthrough were calculated from the online A280 measurements of column flowthrough streams. The A280 curves obtained for the column of interest and for an equivalent “blank” column containing hydrolyzed Sepharose FF 4 media were aligned. The difference in areas between these curves (for a retained and non-retained target) from the time of injection to the time at which the A280 value for the column of interest had risen to 10% of the maximum A280 absorbance (100%) obtained for the load solution at 100% IgG capture saturation (10% breakthrough) was graphically integrated. A standard curve was used to relate the integrated area to mg IgG bound and capacity calculated as total IgG bound divided by column bed volume.

[5] = pH 9.3, 0.01 M sodium bicarbonate

With `CC[C@H](C)[C@@H]1NC(=O)[C@H](CC(C)C)NC(=O)[C@H](CCC(=O)O)NC(=O)CNC(=O)[C@H](Cc2c[nH]c3ccccc23)NC(=O)[C@H]([C@@H](C)O)NC(=O)[C@H]([C@@H](C)O)NC(=O)[C@H](Cc2ccc(O)cc2)NC(=O)[C@H](C(C)C)NC(=O)[C@@H](NC(=O)[C@H](CCSC)NC(=O)[C@H](Cc2c[nH]cn2)NC(=O)[C@H](CC(=O)O)NC(=O)[C@H](CC(=O)O)NC(=O)CNC(C)=O)CSSC[C@@H](C(=O)N[C@@H](CC(=O)O)C(=O)N[C@@H](CC(N)=O)C(=O)N[C@@H](Cc2c[nH]cn2)C(=O)N[C@@H](CCC(=O)O)C(=O)N2CCC[C@H]2C(=O)NCC(=O)N2CCC[C@H]2C(=O)N[C@@H](CCC(=O)O)C(=O)NCC(=O)NCC(=O)NCC(=O)N[C@@H](CCCCN)C(N)=O)NC(=O)[C@H](Cc2c[nH]c3ccccc23)NC1=O` [DX249] (Ac-GDDHMCVYTTWGELIWCDNHEPGPEGGGK-NH2; disulfide 6-17) the Kd [1] was 2.5 ± 0.5 µM, the Kd ([2]; pH 5.7, 0.01 M Tris-acetate) was greater than 10 µM and the Kd ([2]; pH 7.4, 0.01 M Tris-HCl) was greater than 10 µM. The Kd ([2]; pH 7.4, PBS, […] NaCl) was greater than 10 µM, the Kd [2, 5] was greater than 10 µM and the Kd ([3]; pH 7.4, 0.01 M Tris-HCl) was 1.9 ± 0.4 µM. The Kd ([3]; pH 7.4, PBS, […] NaCl) was 1.9 ± 1.2 µM, the Kd [3, 5] was greater than 10 µM and the “Capacity (mg IgG/mL resin) 10% Breakthrough” value ([4]; Ligand Density 0.19 μM/mL) was 1.1 mg IgG/mL resin. For the same molecule, the “Capacity (mg IgG/mL resin) Total Dynamic” value ([4]; Ligand Density 0.19 μM/mL) was 1.2 mg IgG/mL resin, the “Capacity (mg IgG/mL resin) 10% Breakthrough” value ([4]; Ligand Density 0.86 μM/mL) was 4.4 mg IgG/mL resin and the “Capacity (mg IgG/mL resin) Total Dynamic” value ([4]; Ligand Density 0.86 μM/mL) was 8.4 mg IgG/mL resin. The “Capacity (mg IgG/mL resin) 10% Breakthrough” value ([4]; Ligand Density 1.63 μM/mL) was 5.9 mg IgG/mL resin, the “Capacity (mg IgG/mL resin) Total Dynamic” value ([4]; Ligand Density 1.63 μM/mL) was 10.3 mg IgG/mL resin and the “Capacity (mg IgG/mL resin) 10% Breakthrough” value ([4]; Ligand Density 3.20 μM/mL) was 5.5 mg IgG/mL resin. The “Capacity (mg IgG/mL resin) Total Dynamic” value ([4]; Ligand Density 3.20 μM/mL) was 16.4 mg IgG/mL resin and the “Dynamic Cap.” value ([4]; Table 18, total dynamic capacity, average ligand density 1.9 μmole/ml) was 13 mg/mL.
`CC(=O)NCC(=O)N[C@@H](CC(=O)O)C(=O)N[C@@H](CC(=O)O)C(=O)N[C@@H](CC(=O)O)C(=O)N[C@@H](Cc1c[nH]cn1)C(=O)N[C@H]1CSSC[C@@H](C(=O)N2CCC[C@H]2C(=O)N[C@@H](Cc2c[nH]cn2)C(=O)NCC(=O)N[C@@H](CCC(=O)O)C(=O)N2CCC[C@H]2C(=O)NCC(=O)N2CCC[C@H]2C(=O)N[C@@H](CCC(=O)O)C(=O)NCC(=O)NCC(=O)NCC(=O)N[C@@H](CCCCN)C(N)=O)NC(=O)[C@H](CCC(=O)O)NC(=O)[C@H](CO)NC(=O)[C@H](CC(N)=O)NC(=O)[C@H](Cc2ccccc2)NC(=O)[C@H](Cc2c[nH]c3ccccc23)NC(=O)[C@H](CCC(=O)O)NC(=O)[C@H](CCCNC(=N)N)NC(=O)[C@H](Cc2ccccc2)NC(=O)[C@H](Cc2c[nH]c3ccccc23)NC(=O)[C@H](Cc2ccc(O)cc2)NC1=O` [DX252] (Ac-GDDDHCYWFREWFNSECPHGEPGPEGGGK-NH2; disulfide 6-17 (inferred)) gave a Kd [1] of 5.1 ± 3 µM, a Kd ([2]; pH 5.7, 0.01 M Tris-acetate) of less than 0.1 µM and a Kd ([2]; pH 7.4, 0.01 M Tris-HCl) of 2.1 to 3.4 µM. It also gave a Kd [2, 5] greater than 10 µM, a Kd ([3]; pH 5.7, 0.01 M Tris-acetate) greater than 10 µM and a Kd ([3]; pH 7.4, 0.01 M Tris-HCl) of 2.1 to 3.4 µM. For the same molecule, the Kd ([3]; pH 7.4, PBS, […] NaCl) was greater than 10 µM and the Kd [3, 5] was greater than 10 µM.
For “Ac-GDRRACSRDWSGALVWCAGHEPGPEGGGK-NH2 (not fully specified (bridges); printed as Ac-GDRRACSRDWSGALVWCAGHEPGPEGGGK-NH2; cysteine pairing not given here) [DX253]”, the “Capacity (mg IgG/mL resin) 10% Breakthrough” value ([4]; Ligand Density 0.17 μM/mL) was 0.1 mg IgG/mL resin, the “Capacity (mg IgG/mL resin) Total Dynamic” value ([4]; Ligand Density 0.17 μM/mL) was 0.6 mg IgG/mL resin and the “Capacity (mg IgG/mL resin) 10% Breakthrough” value ([4]; Ligand Density 0.84 μM/mL) was 2.6 mg IgG/mL resin. For the same molecule, the “Capacity (mg IgG/mL resin) Total Dynamic” value ([4]; Ligand Density 0.84 μM/mL) was 5.8 mg IgG/mL resin, the “Capacity (mg IgG/mL resin) 10% Breakthrough” value ([4]; Ligand Density 1.45 μM/mL) was 2.9 mg IgG/mL resin and the “Capacity (mg IgG/mL resin) Total Dynamic” value ([4]; Ligand Density 1.45 μM/mL) was 6.4 mg IgG/mL resin. The “Capacity (mg IgG/mL resin) 10% Breakthrough” value ([4]; Ligand Density 2.75 μM/mL) was 8.5 mg IgG/mL resin and the “Capacity (mg IgG/mL resin) Total Dynamic” value ([4]; Ligand Density 2.75 μM/mL) was 24.1 mg IgG/mL resin.
For “Prot. A: immobilized recombinant Protein A (RepliGen Corp., product no. IPA-400), positive control [reference compound]”, the “Capacity at 10% breakthrough as % of total dynamic capacity” value [4] was “about 75%”, the “Capacity (mg IgG/mL resin) 10% Breakthrough” value ([4]; Ligand Density not determined) was 12.9 mg IgG/mL resin and the “Capacity (mg IgG/mL resin) Total Dynamic” value ([4]; Ligand Density not determined) was 16.3 mg IgG/mL resin.
